In assay [1] the test system is androgen-stimulated hair growth of flank organs. Kind of assay: Golden Syrian hamster assay (flank organ hair mass). Type of assay: in vivo. The conditions noted are these: topical, 10% dose, thirteen applications, vehicle A, B or C per compound; for Left(mg) (hair mass of the compound-treated flank organ): 10 μl once a day. From the text:
Male intact Golden Syrian hamsters are considered acceptable models for human beard hair growth and other androgen-stimulated hair growth in that they display oval shaped flank organs, one on each side, each about 8 mm. in major diameter, which grow thick black and coarse hair similar to human beard hair. These organs produce hair in response to androgens in the hamster. To evaluate the effectiveness of a composition in reducing androgen-stimulated hair growth, the flank organs of each of a group of hamsters are shaved. To one organ of each animal 10 μl. of composition vehicle alone once a day is applied, while to the other organ of each animal an equal amount of the composition (including the relevant compound or compounds). After thirteen applications (one application per day for five days a week), the flank organs are shaved and the amount of recovered hair (hair mass) from each is weighed. Percent-reduction of hair growth is calculated by subtracting the hair mass (mg) value of the test compound treated side from the hair mass value of the vehicle treated side; the delta value obtained is then divided by the hair mass value of the vehicle treated side, and the resultant number is multiplied by 100.
The above-described assay will be referred to herein as the "Golden Syrian hamster" assay. Preferred compositions provide a reduction in hair growth of at least about 30%, more preferably at least about 50%, and most preferably at least about 60% when tested in the Golden Syrian hamster assay.
A number of compositions containing compounds that induce or activate UGTs for which testosterone is a substrate were tested in the Golden Syrian hamster assay; the results are provided in Table I: […]

Assay [2] deals with glucuronidation of testosterone (UGTs). Kind of assay: Induction of testosterone glucuronide formation in flank organ homogenates. In kind it is biochemical, Golden Syrian hamster. The conditions noted are these: flank organ protein, [14C]-testosterone 125 μM, UDP-glucuronic acid 5 mM, 37° C., 60 minutes. How it is done:
An assay was performed to evaluate whether some of the compounds tested in the Golden Syrian Hamster assay caused an induction of testosterone glucuronide formation.
Flank organ homogenates were prepared by adding 4 flank organs into 2 mL of a buffer containing 25 mM Tris/50 mM sucrose, pH 7.4 and homogenized with a Polytron (Brinkman Instruments) while keeping the mixture on ice. The glucuronidation of testosterone was measured by incubating the 20 μl of the flank organ protein (1 mg/ml) with [^14 C]-testosterone testosterone 125 μM and UDP-glucuronic acid (5 mM) in the presence of buffer containing 0.5M Tris, pH 7.5 and 0.1M MgCl2. The total reaction mixture volume was 100 μl. Assay mixtures were incubated at 37° C. for 60 minutes, and reactions were stopped with the addition of 3.5 ml methylene chloride. An aqueous carrier (250 μl water) was added to each reaction mixture which was then shaken and centrifuged. The unmetabolized [^14 C]-testosterone remained in the organic phase whereas the testosterone glucuronide partitioned into the aqueous phase, and was quantitated by scintillation spectrometry.

For another assay, the system named is flank organs. Kind of assay: Flank organ diameter by caliper after topical treatment. The conditions noted are these: for effect on flank organ diameter (in words): topical application; for % Decrease (flank organ diameter) / Decrease (mm) (flank organ diameter, treated vs vehicle) / Treated FO (mm) (flank organ diameter): topical treatment as in the hair mass assay. Type of assay: in vivo, Golden Syrian hamster. How it is done: It was believed that the diversion of testosterone away from its biologically active species to a glucuronide or sulfonate conjugate would have effects on the flank organs of the Golden Syrian hamster since testosterone is known to regulate the existence of these unique organs. The diameter of flank organs were assessed using a caliper following topical treatment of the hamsters with ethoxyquin or 5,7-dihydroxy-4'-methoxyflavone as described in the hair mass assay section.

Consider `O=C1CC(c2ccccc2)Oc2ccccc21` (centres unmarked) [flavanone], for which, in assay [1], the “Left(mg) (hair mass of the compound-treated flank organ)” value (shortened to “Left(mg)”) is recorded as 1.91 ± .22 mg and the “% Inhibition (percent reduction of hair growth vs vehicle-treated side)” value was 17 ± 10%.

On to `O=C1C[C@@H](c2ccc(O)cc2)Oc2cc(O)cc(O)c21` [naringenin], for which, in assay [1], the “Left(mg)” value is given as 1.42 ± .18 mg and the “% Inhibition (percent reduction of hair growth vs vehicle-treated side)” value was 40 ± 8%.

For `COc1ccc(-c2cc(=O)c3c(O)cc(O)cc3o2)cc1` [5,7-dihydroxy-4'-methoxyflavone], in assay [1], the “Left(mg)” value is on record as 1.00 ± .22 mg and the “% Inhibition (percent reduction of hair growth vs vehicle-treated side)” value was 62 ± 9%. In addition, the “% Induction (testosterone glucuronide formation)” value (from here on “% Induction”) in assay [2] is listed as 120%. Further, in the assay on flank organs, the “effect on flank organ diameter (in words)” value is “decrease in flank organ diameter”; the “% Decrease (flank organ diameter)” value was 12 ± 5%; the “Decrease (mm) (flank organ diameter, treated vs vehicle)” value is listed as 1.04 ± .46 mm; the “Treated FO (mm) (flank organ diameter)” value is 8.04 ± .29 mm.

As for `CCOc1ccc2c(c1)C(C)=CC(C)(C)N2` [ethoxyquin], in assay [1], the “Left(mg)” value is on record as 0.55 ± .16 mg and the “% Inhibition (percent reduction of hair growth vs vehicle-treated side)” value was found to be 75 ± 7%. Besides, the “% Induction” value in assay [2] amounted to 214%. In addition, in the assay on flank organs, the “effect on flank organ diameter (in words)” value is “decrease in flank organ diameter”; the “% Decrease (flank organ diameter)” value is listed as 19 ± 4%; the “Decrease (mm) (flank organ diameter, treated vs vehicle)” value is 1.65 ± .37 mm; the “Treated FO (mm) (flank organ diameter)” value is on record as 7.18 ± .26 mm.

Turning to `CCC1(c2ccccc2)C(=O)NC(=O)NC1=O` [phenobarbital, reference compound], in assay [1], the “Left(mg)” value was 0.89 ± .16 mg and the “% Inhibition (percent reduction of hair growth vs vehicle-treated side)” value turned out to be 51 ± 11%. For the same compound, in assay [2], the “% Induction” value worked out at 113%.

`COc1ccc(O)c(C(C)(C)C)c1` [butylhydroxyanisole]: in assay [1], the “Left(mg)” value was 0.92 ± .24 mg and the “% Inhibition (percent reduction of hair growth vs vehicle-treated side)” value came to 61 ± 9%. Further, the “% Induction” value in assay [2] was 178%.

With `Cc1cc(C(C)(C)C)c(O)c(C(C)(C)C)c1` [butylhydroxytoluene], in assay [1], the “Left(mg)” value is given as 1.74 ± .38 mg and the “% Inhibition (percent reduction of hair growth vs vehicle-treated side)” value is 22 ± 18%.

The record behind these values is patent US5958946A, “Modulation of hair growth” (priority 1998, dated 1999).
